Measured values from US10543189B2, “2-acetylnaphtho[2,3-b]furan -4,9-dione for use on treating cancer” (Boston Biomedical, Inc., priority 2013, dated 2020).
Read-outs that look alike come from different tables or passages of the source.

Key:
colorectal cancer (CRC) = test: Survival of treated CRC patients by biomarker status or exposure; format: in vivo, human
Source text: FIG. 6A depicts the relationship between Progression Free Survival (PFS) and exposure of a Compound of the Invention in colorectal cancer (CRC) patients. […] FIG. 6B depicts the overall survival (OS) in evaluable CRC patients. OS of evaluable CRC patients treated with a Compound of the Invention (defined as ≥4 weeks of Compound of the Invention, 80% compliance) compared with historical controls [Cetuximab for the treatment of colorectal cancer, 2007, N. Engl. J. Med. 357 2040-2048]. FIG. 6C depicts PFS in evaluable CRC patients. PFS of evaluable CRC patients treated with a Compound of the Invention (defined as ≥4 weeks of Compound of the Invention, 80% compliance) compared historical controls (Open-Label Phase III Trial of Panitumumab Plus Best Supportive Care Compared with Best Supportive Care Alone in Patients with Chemotherapy-Refractory Metastatic Colorectal Cancer, 2007, J. Clin. Onc. 25: 1658-1665].
Understanding the clinical relevance of the cancer stemness markers and identifying their predictive response to the Compound of the Invention is used herein to assist clinical development by selecting patients that will most likely to derive clinical benefit. In some embodiments, the methods provided herein use one or more well-known cancer stemness marker(s), such as, for example, the expression of p-STAT3 and/or other cancer stem cell related proteins such as β-catenin and NANOG. All these proteins can be easily detected using any of a variety of art-recognized techniques. In some embodiments, the cancer sternness marker is detected with immunohistochemistry with antibodies. Using the archival tissue samples collected from the phase I trial with the Compound of the Invention, the patient response to the Compound of the Invention was analyzed based on biomarker status. […] A significant improvement in survival was detected for patients with nuclear β-Catenin localization compared with patients having β-catenin localized to the cell membrane, HR=0.043, p value <0.001. As further evidence, in an in vitro study screening a panel of cancer cells, the cell lines with nuclear β-Catenin show a lower IC50 for the Compound of the Invention. […] Thus, STAT3 activation is involved in nuclear β-catenin regulation. In addition, β-catenin status is a biomarker for predicting responsiveness of CRC patients to the Compound of the Invention.
(§1) CRC patient's archival tumor tissue samples were analyzed through immunohistochemistry (IHC) using labeled antibodies against phosphorylated STAT3 (p-STAT3). […] For instance, 40% of the patients with high p-STAT3 levels before treatment survived longer than 100 weeks whereas only 10% of those with low or no p-STAT3 levels before treatment survived beyond 100 weeks. This further confirms that the Compound of the Invention downregulates that STAT3 pathway, and that the STAT3 pathway is implicated in colorectal cancers.
CRC patient's archival tumor tissue samples were analyzed through immunohistochemistry (IHC) using labeled antibodies against β-catenin. […] For instance, close to 40% of the patients with high nuclear β-catenin levels before treatment survived longer than 100 weeks whereas none of those with high levels of membranous β-catenin survived beyond 25 weeks. This further confirms that the Compound of the Invention disrupts or somehow modulates the β-catenin function, and that the β-catenin pathway is implicated in colorectal cancers.

[1] = test system: phosphorylated STAT3 (p-STAT3); test: Immunohistochemistry of CRC patient tumor tissue for p-STAT3; format: in vivo, human; conditions: 100 mg/kg QD (single daily dosage), FIG. 3A
Description: as §1

[2] = Phase 1 extension study of higher strength capsule (DP2A): pharmacokinetics; format: in vivo; conditions: human, plasma, oral, 500 mg; for AUC(0-t): read-out: AUC0-24
Source text: However, with the higher strength capsules, we observed worsening gastrointestinal adverse effects including nausea, vomiting, and diarrhea in patients.
Additional studies were run using an oral formulation of the Compound of the Invention, specifically a higher strength capsule formulation (DP2A). As described herein, the Compound of the Invention blocks cancer stem cell (CSC) self-renewal and induces cell death in CSC as well as non-stem cancer cells by inhibiting Stat3, β-catenin, and Nanog pathways, and has shown potent anti-tumor and anti-metastatic activities pre-clinically. […] The studies described herein were designed as a phase 1 extension study to evaluate a formulation designed for pivotal trials to determine pharmacokinetics (PK) in patients with advanced cancer.
On Day 1, patients received a single 500 mg dose of an oral administration formulation of the Compound of the Invention (DP1). On Day 4 and Day 8, a higher strength capsule designed for pivotal trials (DP2A) was given with fasting then fed conditions. DP2A was then administered daily until disease progression or unacceptable toxicity. Endpoints were safety, PK and preliminary anticancer activity.

[3] = Patient 0053, single 500 mg dose - fed
[4] = Patient 0054, single 500 mg dose - fed
[5] = Patient 0061, single 500 mg dose - fed
[6] = Patient 0070, single 500 mg dose - fed

Compound: CC(=O)c1cc2c(o1)C(=O)c1ccccc1C2=O [Compound 1, 2-acetylnaphtho[2,3-b]furan-4,9-dione]
- patients surviving beyond 25 weeks (colorectal cancer (CRC); CRC patients (N=13) with high levels of membranous β-catenin): none
- patients surviving longer than 100 weeks (colorectal cancer (CRC); CRC patients (N=13) with high nuclear β-catenin levels before treatment): ~40%
- patients surviving longer than 100 weeks (colorectal cancer (CRC); CRC patients (N=13) with high p-STAT3 levels before treatment): 40%
- patients surviving beyond 100 weeks (colorectal cancer (CRC); CRC patients (N=13) with low or no p-STAT3 levels before treatment): 10%
- Progression Free Survival (PFS), plasma concentrations above 2.0 uM for greater than 4 hours versus not reaching that exposure (colorectal cancer (CRC); CRC patients, FIG. 6A): statistically significant difference
- survival, high level of p-STAT3 or NANOG versus low or negative levels (colorectal cancer (CRC); CRC patients, phase I archival tissue): trend of increased survival
- survival HR, nuclear β-Catenin localization versus β-catenin localized to the cell membrane (colorectal cancer (CRC); CRC patients, phase I archival tissue, p value <0.001): 0.043
- p-STAT3 in the patient tissue after treatment (IHC) [1]: almost no longer any detectable p-STAT3
- Cmax [2, 3]: 6.61 µM
- AUC(0-t) [2, 3]: 79.6 µM·h
- Cmax [2, 4]: 6.25 µM
- AUC(0-t) [2, 4]: 49.8 µM·h
- Cmax [2, 5]: 1.54 µM
- AUC(0-t) [2, 5]: 10.6 µM·h
- Cmax [2, 6]: 2.25 µM
- AUC(0-t) [2, 6]: 20.1 µM·h
